In series [1] the test system is human mesenchymal stem cells (MSCs). Nature of the series: Cell proliferation of MSCs by tritiated thymidine method. The class given is cell-based. The note with it: 33 μM, both at 24 and 72 h after stimulation, vs unstimulated control. On the procedure: Cell proliferation was measured in the MSCs by means of the tritiated thymidine method, in the presence or absence of stimuli, following a method already published in precedence (Gabusi E. et al. J Cell Physiol. 2011). […] After 48 h, tritiated thymidine (Amersham Pharmacia Biotech Italy, Milan) was added to each well at the final concentration of 2 mCi/ml and the culture further incubated for 18 h at 37° C. Lastly, the plates were aspirated through glass fibre filters and dried and the radioactivity incorporated in the cells, indicative of proliferative activity, was measured by means of a TopCount Microplate Scintillation Counter (Packard Instrument Company, Meriden, Conn.). The data are expressed as cpm (count per minute).

The subject of series [2] is human osteoclasts (OCs). The settings on record: OCs on Biocoat Osteologic slides, qualitative evaluation. On the procedure: The ability of OCs to perform a physiological function of degrading the inorganic matrix was assessed by means of the ‘Pit Assay’, in which the OCs were cultured on Biocoat Osteologic (BD Bioscience) slides according to the procedure described in detail above.

Series [3] relates to human mesenchymal stem cells (MSCs). The series is described as follows: Cell viability by Toluidine Blue staining of MSCs. The class given is cell-based. The note with it: 72 h, 33 μM. The source says:
At the end of the period of culture, moreover, the MSCs underwent staining with Toluidine Blue stain in order to evaluate the residual viability, which was then quantified by means of a spectrophotometer (Nanoquant, Tecan Group, Mannedorf, Switzerland).

For series [4], the system named is human osteoclasts (OCs). The series is described as follows: Differentiation of human osteoclasts (TRAP staining count). The class given is cell-based. The settings on record: for inhibition of OC differentiation (number of TRAP-positive mature OCs): monocyte precursors with M-CSF and RANKL, 8 days, 1-33 μM. An excerpt: Human osteoclasts (OCs) were obtained according to a method already described and published (Grassi F. et al. J Cell Physiology 2011 April; 226(4):982-90). Briefly, the OCs were differentiated in vitro starting from monocytic precursors obtained from the peripheral blood of healthy, consenting donors; in particular, whole blood was stratified on Ficoll-Hypaque and the mononuclear cells were obtained by centrifugation. Monocytes were isolated from the latter by immunomagnetic separation of cells positive to the antigen CD11b via a MACS apparatus (Miltenyi Biotech, Calderara di Reno, Bologna). […] The number of mature OCs obtained for each condition of stimulation was then identified by means of a manual count, under a microscope, of the multinuclear cells positive to tartrate-resistant acid phosphatase (TRAP) staining.

Series [5] deals with human mesenchymal stem cells (MSCs).
Method: Briefly, 5 ml of bone marrow aspirate was obtained from consenting patients who underwent post-traumatic orthopaedic surgery. The mononuclear cells were obtained following centrifugation in a density gradient (Ficoll-Hypaque); the cells thus obtained were washed with PBS, resuspended in a D-MEM culture medium containing 15% FBS, then counted and seeded in plastic flasks at a concentration of 2×10^6 cells/flask T150. After 1 week, the non-adherent cells were removed and the adherent cells expanded in culture up to the concentration of 5000 MSC/cm^2 and used, finally, in the culture passage p.1 for the experiments.
Cytoxicity was evaluated in the culture after 24 h and 72 h by means of the lactate dehydrogenase (LDH) method, using a commercial kit (Cytotoxicity Detection Kit, Roche, Milan). In order to avoid interferences due to components present in serum, the cells were maintained under low serum conditions (5%) in the culture medium.
For series [6] the test system is unchanged. The series is described as follows: Mineralisation assay on MSCs (Alizarin Red). It is filed as cell-based. The settings on record: for mineralising capacity of MSCs (Alizarin Red): osteogenic conditions, dose dependence. The method, then: The evaluation of the functional capacity to deposit inorganic matrix on the part of MSC cells was evaluated with an in vitro mineralisation assay, according to an already consolidated method (Grassi F. et al. J. Tissue Eng Reg Med, 2013); MSC cells were maintained under culture for 21 days in the presence of […] of ascorbic acid, 2 mM of β-glycerophosphate and 100 nM of dexamethasone. […] Finally, the mineralised matrix was visualised by staining with Alizarin Red and quantified by spectrophotometry (Nanoquant, Tecan Group, Mannedorf, Switzerland).

The nature of series [7]: Determination of the release of H2S by amperometry. It is filed as physicochemical. The method, then: Amperometry—the potential release of H2S from the tested compound was evaluated by means of the amperometric method, using an Apollo-4000 Free Radical Analyzer (WPI) connected to mini-electrodes selective for H2S. The experiments were conducted at room temperature in phosphate buffer (NaH2PO4.H2O 0.128 g, Na2HPO4.12H2O 0.597 g, NaCl 4.388 g in 500 mL H2O) at pH 7.4. When required by the experimental protocol, 4 mM L-cysteine was also dissolved in the above-described phosphate buffer, maintaining the pH a 7.4. After stabilisation of the mini-electrodes selective for H2S in 10 mL of buffer, 100 μL of the compound DM-22 solubilised in DMSO was added at the final concentration of 1 mM. The formation of H2S was recorded for 20 minutes. The same experimental procedure was also carried out in the buffer containing L-cysteine. The correspondence between the amperometric currents (recorded in pA) and the concentrations of H2S was determined by means of suitable calibration curves previously obtained using increasing concentrations of NaHS (1 μM, 3 μM, 5 μM, 10 μM) at pH 4.
The curves related to the progressive release of H2S as a function of time were analysed by means of the following equation: Ct=Cmax−(Cmax·e−k·t)
Where Ct is the concentration at time t, Cmax is the maximum concentration obtained during the recording time and the constant k is 0.693/t½, and where t½ is the time it takes to reach half of Cmax. The values of Cmax and t½ were calculated by means of software: Graph Pad Prism 4.0 and expressed as a value±standard error.

Structures are written as SMILES.

Regarding `O=C(NCCCC(O)(P(=O)(O)O)P(=O)(O)O)c1ccc(N=C=S)cc1` [DM-22], in series [1], the “proliferative activity in MSCs” value is recorded as “does not induce any significant decrease in proliferation”. The “inhibition of erosive capacity of OCs (pits, qualitative)” value in the series on human osteoclasts (OCs) [2] was “only at the concentrations of 10 and 33 μM do the eroded areas disappear completely”. Besides, the “cell viability (Toluidine Blue) compared to the unstimulated control” value in series [3] is “does not bring about any decrease”. In addition, in the series with human osteoclasts (OCs) [4] (concentrations being equal), the “times less effective than alendronate in suppressing OCs” value is given as 33-100 times. For the same molecule, in the series with human osteoclasts (OCs) [4], the “inhibition of OC differentiation (number of TRAP-positive mature OCs)” value is on record as “statistically significant only at the highest concentration (33 μM)”. For the same molecule, the “cytotoxicity (LDH assay)” value in series [5] (1-33 μM, at both 24 h and 72 h, low serum (5%)) was “does not induce any cytotoxicity”. Also, the “cytotoxicity (LDH assay) compared to the basal level induced by serum deprivation” value in series [5] (24 h) is given as “significant protection”. In addition, the “cellular toxicity (LDH assay)” value in series [5] (72 h, 33 μM) is recorded as “completely absent”. Also, the “mineralisation compared to MSCs treated with alendronate” value in series [6] (21 days, concentrations of 3.3, 10 and 33 μM) is listed as “significantly greater mineralisation”. For the same molecule, in series [6] (21 days, maximum concentration of 33 μM), the “degree of mineralisation compared to control MSCs” value is given as “significantly greater than that of the control MSCs”. Further, in series [6] (21 days), the “mineralising capacity of MSCs (Alizarin Red)” value (shortened to “mineralising capacity of MSCs”) is “dose-dependent capacity to induce mineralisation”. In addition, the “range of concentration in which it stimulates the anabolic function and significantly inhibits osteoclasts” value in series [6] (summary statement) lay in the range of 10 to 33 µM. In series [7] (1 mM compound in phosphate buffer pH 7.4, room temperature, no L-cysteine), the “concentration of H2S detected after 20 minutes of incubation” value is on record as “approximately 1.5 μM”. Besides, the “maximum concentration of H2S detected after 20 minutes of incubation” value in series [7] (1 mM compound in phosphate buffer pH 7.4 in the presence of 4 mM L-cysteine) was “approximately 45 μM”. In addition, the “liberation of H2S” value in series [7] (summary statement) is “capable of liberating H2S with slow-release kinetics”.
Consider `[Na+].[SH-]` [NaHS, reference compound], for which the “mineralising capacity of MSCs” value in series [6] (21 days) was “respond as expected”.
Turning to `NCCCC(O)(P(=O)(O)O)P(=O)(O)O` [alendronate, reference compound], in series [1], the “proliferative activity in MSCs” value is on record as “significant inhibition of proliferative activity”. Besides, the “cell viability (Toluidine Blue) compared to the unstimulated control” value in series [3] is “significant decrease in cell viability”. In addition, the “inhibition of OC differentiation (number of TRAP-positive mature OCs)” value in the series with human osteoclasts (OCs) [4] is on record as “strong capacity to inhibit OC differentiation starting from the lowest concentration used in the study (1 μM)”.
Take `[Ca+2].[Cl-].[Cl-]` [calcium chloride, reference compound]: the “mineralising capacity of MSCs” value in series [6] (21 days) was “respond as expected”.

The values above are taken from patent US10016444B2, “Molecules for bone tissue regeneration” (ISTITUTO ORTOPEDICO RIZZOLI, priority 2014, dated 2018).
